Experimental data from US20230140290A1, “SALICYLAMIDE DERIVATIVES AND RELATED METHODS OF MAKING” (THE BOARD OF REGENTS OF THE UNIVERSITY OF TEXAS SY, priority 2020, published 2023).
Like-named read-outs stand apart in the source and are kept apart here.

Legend:
[1] = Maximum tolerated dose (MTD); conditions: immunosuppressed Syrian hamster, intraperitoneal
Experimental: Maximum tolerated dose (MTD). […] Before dosing, compounds were diluted in 10% DMSO, 10% Cremophor EL and 80% sodium chloride physiological solution. […] At day 14 animals were sacrificed with a lethal dose of thiopental. All inoculations were done via intraperitoneal.

HAdV5-GFP [2] = test: Plaque assay (inhibition of HAdV plaque formation); assay type: cell-based, HAdV-5; conditions: HAdV5-GFP, low MOI, 293β5 cell line
Summary of the method: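 Compounds were present in the post-infection mixture at 10 μM, or at 10 to 0.3 μM for dose-response. Infection used low MOI HAdV5-GFP (0.06 vp/cell) on 80-90% confluent cells, 2 h rocking at 37° C, then a PBS wash.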

HAdV5-GFP [3] = test: Entry assay (HAdV5-mediated GFP expression); assay type: cell-based, HAdV-5; conditions: HAdV5-GFP, high MOI, A549 cell line; for (%) Inhibition Entry Assay (50 μM): 48 h
Experimental: Entry Assay. The anti-HAdV activity was measured in an entry assay using human A549 epithelial cells (3×10^5 cells/well in coming black wall, clear bottom 96-well plates) infected with HAdV5-GFP (2000 vp/cell) in the presence 50 μM of the candidates and in a dose-response assay. A standard infection curve was generated in parallel by infecting cells in the absence of compounds using serial 2-fold dilutions of virus. All reactions were done in triplicate. Cells, virus, and drugs were incubated for 48 h at 37° C. and 5% CO2.

HAdV5-GFP [4] = conditions: read-out: IC50, inhibition of HAdV infection; Marrugal-Lorenzo et al. 2019; cited from earlier work
HAdV5 = test: HAdV-mediated endosome disruption (α-sarcin co-delivery assay); assay type: cell-based, HAdV-5; conditions: FIG. 11; A549, 5 μM, independent of virus concentration

O=C(Nc1ccc([N+](=O)[O-])cc1Cl)c1cc(Cl)ccc1O [Compound 6, niclosamide, reference compound]
doses showing high toxicity [1]: ≥ 5 mg/kg | Plaque Assay (%) Inhibition (10 μM) (HAdV5-GFP [2]; 10 μM): 100 ± 0% | IC50 (HAdV5-GFP [2]; read-out: Plaque Assay IC50): 600 nM | (%) Inhibition Entry Assay (50 μM) (HAdV5-GFP [3]): 100.0 ± 0.0% | (%) Inhibition Entry Assay (50 μM) (HAdV5-GFP [3]; listed as 73, 50 µM): 100 ± 0% | IC50 (HAdV5-GFP [3]; read-out: IC50 Entry Assay): 1220 ± 440 nM | IC50 (HAdV5-GFP [4]): 600 nM | rate of HPG incorporation compared to a control without α-sarcin (HAdV5): under 50%
